Test results taken from patent EP0719251B1, “BICYCLO (2.2.2) OCTANE DERIVATIVES CHOLECYSTOKININ AND/OR GASTRIN ANTAGONISTS” (JAMES BLACK FOUNDATION LIMITED, priority 1993, dated 1995).

Assays:
[1] = target: T1, CCKB receptor (Mus musculus, UniProt P56481); experiment: radioligand binding assay at the CCKB receptor in mouse cortical membranes; conditions: [125I]-CCK8S 200pM, 150 min at 21 ± 3°C, read-out: CCKB pKi (converted)
T1 construct: The whole brains from male mice (CD1 22-25g; Charles River) were removed; from tissue; host or cells: cerebral cortex membranes of male CD1 mice
T1 sequence (P56481 1-453): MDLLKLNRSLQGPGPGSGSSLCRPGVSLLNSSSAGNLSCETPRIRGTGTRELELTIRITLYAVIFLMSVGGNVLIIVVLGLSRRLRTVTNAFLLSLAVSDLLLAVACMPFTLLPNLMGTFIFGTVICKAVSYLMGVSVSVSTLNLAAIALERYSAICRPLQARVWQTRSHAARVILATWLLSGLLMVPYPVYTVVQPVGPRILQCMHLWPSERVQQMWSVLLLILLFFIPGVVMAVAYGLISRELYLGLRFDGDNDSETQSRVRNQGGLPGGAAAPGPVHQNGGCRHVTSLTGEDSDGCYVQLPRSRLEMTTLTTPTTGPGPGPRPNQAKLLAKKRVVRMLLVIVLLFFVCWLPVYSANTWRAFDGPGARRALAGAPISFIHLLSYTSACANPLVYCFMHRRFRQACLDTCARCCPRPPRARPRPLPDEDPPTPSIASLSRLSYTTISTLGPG
Summary of the method: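 Cortical membranes from male CD1 mice prepared in HEPES buffer (pH 7.2, with NaCl, KCl, MgCl2, EDTA, bacitracin) at 2 mg/ml wet weight. Binding stopped by rapid filtration over GF/B filters with ice-cold Tris-HCl washes. Bound radioactivity counted in a gamma-counter.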

[2] = target: T2, gastrin (Rattus norvegicus, UniProt P30553); experiment: gastrin antagonist activity in an immature rat stomach assay; conditions: isolated immature rat stomach, cumulative pentagastrin dose-response curves, acid secretion; read-out: Gastrin pKB (converted)
T2 construct: The stomach was excised and flushed with ca. 1 ml of unbuffered physiological saline solution; from tissue; host or cells: isolated whole stomach of immature rats (33-50 g, ca. 21 days old)
T2 sequence (P30553 1-452): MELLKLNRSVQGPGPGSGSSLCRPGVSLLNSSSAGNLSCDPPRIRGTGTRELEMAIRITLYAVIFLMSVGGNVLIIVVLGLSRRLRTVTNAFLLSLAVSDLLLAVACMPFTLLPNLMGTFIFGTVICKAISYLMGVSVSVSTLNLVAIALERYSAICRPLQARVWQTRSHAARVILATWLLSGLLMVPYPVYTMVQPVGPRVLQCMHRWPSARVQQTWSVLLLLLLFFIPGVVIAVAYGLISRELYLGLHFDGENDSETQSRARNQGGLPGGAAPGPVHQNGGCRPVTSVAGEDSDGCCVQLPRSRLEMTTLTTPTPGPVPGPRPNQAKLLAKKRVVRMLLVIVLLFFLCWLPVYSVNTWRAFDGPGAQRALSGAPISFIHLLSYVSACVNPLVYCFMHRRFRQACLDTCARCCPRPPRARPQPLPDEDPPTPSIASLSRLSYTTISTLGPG
Summary of the method: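 Isolated stomachs from immature rats (33-50 g, ca. 21 days) perfused at 1 ml min^-1 with O2-gassed unbuffered saline, perfusate pH monitored by electrode. After 120 min stabilisation, compounds added to serosal bath; cumulative pentagastrin dose-response curves begun 60 min later.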

[3] = target: T3, CCKA (Cavia porcellus, UniProt Q63931); experiment: CCKA binding assay in guinea-pig pancreas membranes; conditions: [125I]-CCK8(S) 200pM, containing 0.375 µM PD134,308, read-out: CCKA pKi (converted)
T3 construct: The pancreatata were removed from male guinea-pigs (200-300g; Dunkin Hartley); from tissue; host or cells: pancreas membranes of male Dunkin Hartley guinea-pigs
T3 sequence (Q63931 1-430): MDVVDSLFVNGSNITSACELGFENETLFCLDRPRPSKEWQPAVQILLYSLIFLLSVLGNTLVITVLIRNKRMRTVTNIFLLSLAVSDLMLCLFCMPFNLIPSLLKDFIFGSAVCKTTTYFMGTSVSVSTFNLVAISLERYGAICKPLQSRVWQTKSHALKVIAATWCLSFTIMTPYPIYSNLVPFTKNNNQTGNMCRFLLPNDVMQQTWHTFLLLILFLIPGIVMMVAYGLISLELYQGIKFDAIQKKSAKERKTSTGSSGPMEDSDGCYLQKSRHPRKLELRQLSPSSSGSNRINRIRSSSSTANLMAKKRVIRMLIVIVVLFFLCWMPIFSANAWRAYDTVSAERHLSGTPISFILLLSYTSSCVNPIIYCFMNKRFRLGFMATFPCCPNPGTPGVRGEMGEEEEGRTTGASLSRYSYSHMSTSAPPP
Summary of the method: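 Competition binding of [125I]-CCK8(S) (200 pM in the added solution) to male guinea-pig pancreas membranes (1 mg/ml wet weight) containing 0.375 µM PD134,308, in HEPES buffer pH 7.2. Incubated 150 min at 21 ± 3°, then filtered. Bound radioactivity gamma-counted; non-specific binding defined with 100nM L-364,718.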

| Ki [1] [nM] | Kb [2] [nM] | Ki [3] [nM] | SMILES |
| --- | --- | --- | --- |
| 63.1 | 31.6 | 2000 | O=C(O)c1cc(NC(=O)[C@H](CCc2ccccc2)NC(=O)C2C3c4ccccc4C(c4ccccc43)C2C(=O)NCC23CC4CC(CC(C4)C2)C3)cc(C(=O)O)c1 (stereo partly drawn) [Example 36, cis-7-(1S-(3,5-dicarboxyphenylaminocarbonyl) -3-phenylpropylaminocarbonyl) -8-(1-adamantanemethyl-aminocarbonyl) -2,3,5,6-dibenzobicyclo[2.2.2]octane] |
| 251 | 100 | 50.1 | O=C(O)c1cc(NC(=O)[C@H](Cc2ccc(Cl)cc2)NC(=O)C2C3c4ccccc4C(c4ccccc43)C2C(=O)NCC23CC4CC(CC(C4)C2)C3)cc(C(=O)O)c1 (single isomer, unassigned) [Example 11, cis-7-(1S-(3,5-dicarboxyphenylaminocarbonyl)-2-(4-chlorophenyl)ethylaminocarbonyl)-8-(1-adamantanemethylaminocarbonyl) -2,3,5,6-dibenzobicyclo[2.2.2]octane] |
| 50.1 | 20 | 398 | O=C(O)c1cc(NC(=O)[C@H](Cc2ccc(F)cc2)NC(=O)C2C3c4ccccc4C(c4ccccc43)C2C(=O)NCC23CC4CC(CC(C4)C2)C3)cc(C(=O)O)c1 (single isomer, unassigned) [Example 9, cis-7-(1S-(3,5-dicarboxyphenylaminocarbonyl) -2-(4-fluorophenyl)ethylaminocarbonyl)-8-(1-adamantanemethylaminocarbonyl) -2,3,5,6-dibenzobicyclo[2.2.2]octane] |
